Values after ≈ are worked out from the molar mass of the structure shown. Read-outs that look alike come from different tables or passages of the source.

One experiment deals with Staphylococcus aureus. Nature of the experiment: MIC and MBC, broth micro-dilution. The class given is cell-based. Conditions: S. aureus; for MIC: 24 h.
The test system of experiment [1] is Staphylococcus epidermidis. The experiment in a line: MIC and MBC, broth micro-dilution. It counts as cell-based. Particulars: S. epidermidis; for MIC: 24 h.
In a further experiment the test system is Bacillus sphaericus. Nature of the experiment: MIC and MBC, broth micro-dilution. It counts as cell-based. Particulars: B. sphaericus; for MIC: 24 h.
The next experiment deals with Escherichia coli. Nature of the experiment: MIC and MBC, broth micro-dilution. The class given is cell-based. Particulars: E. coli; for MIC: 24 h.
The test system of a further experiment is Klebsiella pneumoniae. Nature of the experiment: MIC and MBC, broth micro-dilution. The class given is cell-based. Conditions: K. pneumoniae; for MIC: 24 h.
The test system of a further experiment is Pseudomonas aeruginosa. Nature of the experiment: MIC and MBC, broth micro-dilution. The class given is cell-based.
For experiment [2], the system named is MCF-7 (human breast adenocarcinoma cells). The experiment in a line: MTT antiproliferative assay. The class given is cell-based. Conditions: MCF-7, 48 h, mean ± SD.
The subject of the next experiment is DU-145 (prostate cancer). Nature of the experiment: MTT antiproliferative assay. Particulars: DU-145, 48 h, mean ± SD. It counts as cell-based, human.
Experiment [3] has as its system U251 (glioblastoma cancer). Nature of the experiment: MTT antiproliferative assay. It counts as cell-based, human. Particulars: U251, 48 h, mean ± SD.
The test system of experiment [4] is Panc-1 (pancreatic cancer). Nature of the experiment: MTT antiproliferative assay. Particulars: mean ± SD. The class given is cell-based, human.
Experiment [5] concerns normal human dermal fibroblasts (NHDF). The experiment in a line: MTT assay in non-malignant cells. Particulars: 48 h, mean ± SD. The class given is cell-based.
The next experiment relates to U251 cell line. The experiment in a line: Cytotoxicity of selenous acid (MTS assay, Figure S60). It counts as cell-based, human. Particulars: U251, 48 h, 1–100 µM. An excerpt: The striking difference in the potency of Se salts as compared to their corresponding parent compounds raises a question: Could the release of the Se salt part of the molecules be solely responsible for these activities? Nevertheless, after thoroughly analyzing the in vitro antiproliferative activities and the structure of the reported compounds, our initial hypothesis is that the antitumor activity of the new selenium salts might not be due to the release of the Se inorganic, as evinced by the following four experimental outcomes: (1) All the salt compounds should have shown similar efficacy at the same molar concentrations if the toxicity was solely due to the release of the Se salt part. […] To confirm this hypothesis and due to the scarce number of reported antitumor activities of selenous acid, we evaluated H2SeO3 in the U251 cell line in our experimental setup. […] Since the IC50 value of selenous acid is in the range of what is observed for SLT-1-6 (Table 3), the increased antiproliferative activity of the salts might or might not be linked to the release of the Se salt fragment of the molecule. […] Further studies are needed to fully characterize and understand the behavior of these selenous salts.
Figure S58. Dose-response curves of SLT-6 in all the cell lines present in the NCI panel.
Figure S59. […]
Cell viability was assessed using an MTS assay. […]

The subject of the next experiment is Panc-1 cells. Particulars: several experimental conditions; cited from earlier work.
The mark [6] stands for this setting: Staphylococcus aureus, read-out: MIC.
Where [7] appears, read: Staphylococcus aureus, read-out: MBC.
The mark [8] stands for this setting: Staphylococcus epidermidis, read-out: MIC.
Where [9] appears, read: Staphylococcus epidermidis, read-out: MBC.
Where [10] appears, read: Lysinibacillus sphaericus, read-out: MIC.
Setting [11] is: Lysinibacillus sphaericus, read-out: MBC.
Where [12] appears, read: Escherichia coli, read-out: MIC.
Where [13] appears, read: Escherichia coli, read-out: MBC.
[14] abbreviates: Klebsiella pneumoniae, read-out: MBC.
[15] abbreviates: Klebsiella pneumoniae, read-out: MIC.
Setting [16] is: Pseudomonas aeruginosa; P. aeruginosa; read-out: MBC.
[17] abbreviates: Pseudomonas aeruginosa; P. aeruginosa, 24 h; read-out: MIC.

With `COc1cc(Cc2cnc(N)nc2N)cc(OC)c1OC` [AB-2, trimethoprim], the MIC was 1.56 µg/mL (≈ 5.37 µM) in the experiment with Staphylococcus aureus (setting [6]); more than 200 µg/mL in experiment [1] (setting [8]); 1.56 µg/mL (≈ 5.37 µM) in the experiment on Bacillus sphaericus (setting [10]); 1.56 µg/mL (≈ 5.37 µM) in the experiment on Escherichia coli (setting [12]); 3.13 µg/mL (≈ 10.8 µM) with Klebsiella pneumoniae (setting [15]); 50 µg/mL (≈ 172 µM) in the experiment on Pseudomonas aeruginosa (Pseudomonas aeruginosa, 24 h, P. aeruginosa, 24 h; read-out: MIC). Moreover, the MBC is 3.13 µg/mL (≈ 10.8 µM) in the experiment with Staphylococcus aureus (setting [7]); more than 200 µg/mL in experiment [1] (setting [9]); 6.25 µg/mL (≈ 21.5 µM) in the experiment on Bacillus sphaericus (setting [11]); 6.25 µg/mL (≈ 21.5 µM) in the experiment on Escherichia coli (setting [13]); 12.5 µg/mL (≈ 43.1 µM) in the experiment with Klebsiella pneumoniae (setting [14]); more than 200 µg/mL with Pseudomonas aeruginosa (setting [16]). Besides, the IC50 is more than 100 µM in experiment [2]; more than 100 µM in the experiment with DU-145 (prostate cancer); more than 100 µM in experiment [3]; more than 100 µM in experiment [4] (Homo sapiens, PANC-1, 48 h); 6.47 ± 1.79 µM in experiment [5] (Homo sapiens).
Turning to `Nc1ccc(S(=O)(=O)c2ccc(N)cc2)cc1` [AB-3, dapsone], the MBC (in the experiment with Staphylococcus aureus; in experiment [1]; against Bacillus sphaericus; with Escherichia coli; in the experiment with Klebsiella pneumoniae; in the experiment with Pseudomonas aeruginosa (P. aeruginosa)) was more than 200 µg/mL throughout. The MIC with Staphylococcus aureus was more than 200 µg/mL; in experiment [1] it was more than 200 µg/mL; in the experiment with Bacillus sphaericus, more than 200 µg/mL; in the experiment with Escherichia coli, more than 200 µg/mL; in the experiment on Klebsiella pneumoniae it was more than 200 µg/mL; against Pseudomonas aeruginosa (P. aeruginosa, 24 h), more than 200 µg/mL. In addition, the IC50 in experiment [2] is more than 100 µM; with DU-145 (prostate cancer), more than 100 µM; in experiment [3] it was more than 100 µM; in [4] (Homo sapiens, PANC-1, 48 h) it was more than 100 µM; in experiment [5] it was more than 100 µM.
On to `Nc1ccc(S(=O)(=O)Nc2ncccn2)cc1` [AB-4, sulfadiazine], for which the minimal inhibitory concentration (MIC) in the experiment on Staphylococcus aureus (setting [6]) is more than 200 µg/mL; in experiment [1], more than 200 µg/mL; with Bacillus sphaericus (setting [10]) it was more than 200 µg/mL; in the experiment on Escherichia coli (setting [12]) it was more than 200 µg/mL; with Klebsiella pneumoniae (setting [15]), more than 200 µg/mL; in the experiment with Pseudomonas aeruginosa (P. aeruginosa, 24 h), 50 µg/mL (≈ 200 µM). In addition, the MBC (with Staphylococcus aureus (setting [7]); in [1] (setting [9]); with Bacillus sphaericus (setting [11]); with Escherichia coli (setting [13]); in the experiment with Klebsiella pneumoniae (setting [14]); in the experiment with Pseudomonas aeruginosa (setting [16])) was more than 200 µg/mL each time. The IC50 was more than 100 µM in [2]; more than 100 µM in the experiment on DU-145 (prostate cancer); more than 100 µM in [3]; more than 100 µM in experiment [4] (Panc-1, 48 h); more than 100 µM in experiment [5].
Consider `NNC(=O)c1ccncc1` [AB-5, isoniazid], for which the MIC (in the experiment on Staphylococcus aureus (setting [6]); in experiment [1] (setting [8]); in the experiment with Bacillus sphaericus (setting [10]); in the experiment with Escherichia coli (setting [12]); with Klebsiella pneumoniae (setting [15]); with Pseudomonas aeruginosa (setting [17])) was more than 200 µg/mL throughout. The MBC (in the experiment on Staphylococcus aureus (setting [7]); in [1] (setting [9]); in the experiment with Bacillus sphaericus (setting [11]); in the experiment with Escherichia coli (setting [13]); in the experiment on Klebsiella pneumoniae (setting [14]); in the experiment on Pseudomonas aeruginosa (setting [16])) was more than 200 µg/mL in each case. The IC50 in experiment [2] is more than 100 µM; in the experiment with DU-145 (prostate cancer), 99.92 ± 0.2 µM; in experiment [3], more than 100 µM; in experiment [4] (Homo sapiens, PANC-1, 48 h) it was more than 100 µM; in experiment [5], 41.2 ± 12.1 µM.
`CNC(C)C1CCC(N)C(OC2C(N)CC(N)C(OC3OCC(C)(O)C(NC)C3O)C2O)O1` (stereo not drawn) [AB-6, gentamicin]: the MBC amounted to 50 µg/mL (≈ 105 µM) in the experiment on Staphylococcus aureus; 0.39 µg/mL (≈ 0.817 µM) in experiment [1]; 0.78 µg/mL (≈ 1.63 µM) in the experiment with Bacillus sphaericus (setting [11]); 25 µg/mL (≈ 52.3 µM) with Escherichia coli (setting [13]); 3.13 µg/mL (≈ 6.55 µM) with Klebsiella pneumoniae; 12.5 µg/mL (≈ 26.2 µM) with Pseudomonas aeruginosa (setting [16]). The MIC in the experiment on Staphylococcus aureus (setting [6]) was 25 µg/mL (≈ 52.3 µM); in experiment [1] it was 0.39 µg/mL (≈ 0.817 µM); in the experiment on Bacillus sphaericus (setting [10]) it was 0.2 µg/mL (≈ 0.419 µM); in the experiment on Escherichia coli (setting [12]) it was 25 µg/mL (≈ 52.3 µM); in the experiment on Klebsiella pneumoniae (Klebsiella pneumoniae), 1.56 µg/mL (≈ 3.27 µM); in the experiment on Pseudomonas aeruginosa (setting [17]) it was 6.56 µg/mL (≈ 13.7 µM). The IC50 in [2] is more than 100 µM; with DU-145 (prostate cancer) it was more than 100 µM; in [3], more than 100 µM; in experiment [4] (Panc-1, 48 h), more than 100 µM; in experiment [5], more than 100 µM.
For `O=[Se](O)O` [H2SeO3, selenous acid], the minimal bactericidal concentration (MBC) in the experiment with Staphylococcus aureus is 200 µg/mL (≈ 1550 µM); in experiment [1], 200 µg/mL (≈ 1550 µM); in the experiment with Bacillus sphaericus it was 200 µg/mL (≈ 1550 µM); against Escherichia coli it was more than 200 µg/mL; against Klebsiella pneumoniae, 200 µg/mL (≈ 1550 µM); against Pseudomonas aeruginosa (P. aeruginosa), more than 200 µg/mL. In addition, the MIC against Staphylococcus aureus came out at 100 µg/mL (≈ 775 µM); in [1] it was 100 µg/mL (≈ 775 µM); against Bacillus sphaericus it was 100 µg/mL (≈ 775 µM); against Escherichia coli, 200 µg/mL (≈ 1550 µM); against Klebsiella pneumoniae, 100 µg/mL (≈ 775 µM); in the experiment on Pseudomonas aeruginosa (P. aeruginosa, 24 h) it was 200 µg/mL (≈ 1550 µM). In addition, the IC50 in the experiment with U251 cell line was found to be 1.04 µM.
As to `O=[Se]([O-])[O-].[Na+].[Na+]` [sodium selenite], the IC50 result with Panc-1 cells is reported as “low micromolar range”.

These data come from paper PMC12029531, “Selenium in Action: Exploring the Biological Wonders of Hydroselenite Salts” (Molecules, 2025).
